# Results reported in a melting point compilation (Tetko et al.; mined from patent text by program, amines drawn as free bases though some values may be those of a salt).
row,melting point [°C],SMILES
1,107 to 113,Cc1nc2c(-c3cccc(N4CCN(C)CC4)c3)cnn2c(N)c1-c1cccc(Br)c1
2,150 to 153,CCCCOCCOc1ccc(-c2ccc3c(c2)C=C(C(=O)OC)CCN3c2ccc(S(=O)(=O)N(C)C)cc2)cc1
3,108,CC(=O)c1ccc(Cl)c(S(=O)(=O)N(C)C)c1
4,148 to 150,O=C(C=Cc1ccc(O)cc1)N(CCO)CCO
5,106,O=[N+]([O-])c1ccc(NCc2ccccc2)c([N+](=O)[O-])c1
6,71,CC=C(Oc1nc(OC)cc(OC)n1)C(=O)OC
7,144 to 145,CNCC1Cc2cc(OC)cc(-c3cc(OC)ccc3OC)c2O1 (stereo not given)
8,295 to 296,COc1cc(OC)c2c(=O)[nH]c(-c3ccc(Cc4nnn[nH]4)cc3)nc2c1
9,161 to 164,Nc1ccc(S(=O)c2ccc(-c3ccc(Br)cc3)cc2)cc1N (stereo not given)
10,236,CCOC(=N)c1sc2ccc(Cl)cc2c1O
11,93 to 94,c1ccc(OCCSCc2nnc(-c3ccc4cc(CN5CCCCC5)ccc4c3)o2)cc1
12,191 to 193,CC(=O)CN1CCN(C(=O)Cn2c(=O)sc3ncc(Cl)cc32)CC1
13,157 to 158,CSc1ccc(N=Cc2ccc(F)cc2)cc1
14,93,O=C(NN1CCCC1)C(CS)Cc1ccccc1 (stereo not given)
15,115 to 116,O=C(O)c1ccc(C(F)(F)F)cc1SC1CCCCC1
16,153 to 154,CS(=O)(=O)c1ccc(-c2cnn(Cc3ccc(F)cc3)c(=O)c2-c2ccc(F)cc2)cc1
17,239 to 242,CNC(=O)c1ccc(N2CCN(c3ccncc3)CC2)cc1
18,181 to 182,CSC1NC(=O)N(c2ccc(Cl)c(Cl)c2)C(=O)N1N=C(C)C (stereo not given)
19,118,Fc1ccc(-c2cc(Cl)nc3ccccc23)cc1
20,253,O=C(O)CN1C(=S)c2cccc3c(Br)ccc1c23
21,162 to 165,O=c1[nH]cc(C(F)(F)F)cc1Br
22,77 to 79,CC(C)(C)OC(=O)NCC(O)CN (stereo not given)
23,> 260,Cc1cnc(Cl)c2c3cc(O)ccc3n(C)c12
24,235 to 238,CNC(=O)NS(=O)(=O)c1cccc2c1OS(=O)(=O)C(C)C2 (stereo not given)

row,melting point [°C],SMILES
1,177 to 178,CNC(=O)c1cc2ccc(OC)cc2n1CCNC(C)=O
2,215 to 216,CC(=NO)c1nc(-c2cccnc2)[nH]c1C
3,180 to 182,O=S1(=O)CCON=C1c1c(Cl)cccc1Cl
4,149 to 151,CN1C2CCC1CC(NC(=O)c1cccc3oc(-c4ccccc4)nc13)C2 (stereo not given)
5,237 to 239,CCc1nc2c(N)nc3cc(CCC(=O)N4CCOCC4)ccc3c2n1CC(C)(C)O
6,85.5 to 89,COCc1cccc2c1ccn2S(=O)(=O)c1ccc(C)cc1
7,127 to 129,CC(=O)OCC1OC(c2ccc(F)c(Cc3ccc(Br)s3)c2)C(OC(C)=O)C(OC(C)=O)C1OC(C)=O (stereo not given)
8,86 to 87,COc1ccc2c(ccn2Cc2ccccc2Br)n1
9,74 to 76,CS(=O)(=O)c1ccc(-c2cc(=O)n(CC3CCC3)nc2-c2ccc(F)cc2)cc1
10,112 to 115,O[C@@H](CNCCOc1ccc2oc(-c3noc(C(F)(F)F)n3)cc2c1)COc1ccccc1Cl
11,179,COCn1ccnc1C(O)(c1ccc(F)cc1)c1ccc(Cl)cc1Cl (stereo not given)
12,269,CC(C)c1ccc(C(=O)C2=C(O)C(=O)N(c3ccc(OCc4ccccc4)nn3)C2c2ccc(OC(F)(F)F)cc2)cc1 (stereo not given)
13,195 to 201,COC(=O)c1cc(-c2cccc(C(F)(F)F)c2)c[nH]c1=O
14,200,O=C(O)Cc1ccc2c3c(cccc13)C(c1ccccc1)C2 (stereo not given)
15,111 to 114,CN(C)c1cc2c3c(cccc3c1)C(=O)N(CCCCCC(=O)O)C2=O
16,> 275,CCn1c(=O)c2[nH]c(/C=C/c3ccc4c(c3)OCO4)nc2n(CC)c1=O
17,132 to 134,CCOc1ccc(C2C(=O)Oc3c2cc(C(C)(C)C)cc3C(C)(C)C)cc1 (stereo not given)
18,181 to 182,Oc1ccc(I)c(-c2cc(O)ccc2I)c1
19,172,CC(C)(C)C(=O)Nc1c(F)cc(F)cc1Oc1ccc(C2CC(=O)NC(=O)C2)cc1
20,250 to 252,CCNC(=O)NC(CC)c1ccc(Cl)c2nc3n(c12)CCCN3c1ccc(Cl)cc1Cl (stereo not given)
21,92 to 93,O=C(OC1CCCCCCC1=O)c1ccccc1 (stereo not given)
22,118,CC(C)C(c1ccc(N)cc1)n1cncn1 (stereo not given)
23,144 to 145,O=C1C=C(c2ccc(Cl)cc2)C(=O)O1
24,225 to 226,O=C(CC(NC(=O)COc1ccccc1)c1ccccc1)Nc1n[nH]c(=S)s1 (stereo not given)

row,melting point [°C],SMILES
1,108 to 109,NS(=O)(=O)c1cccc(C=O)c1
2,102 to 103,CCCC(=O)c1ccc(OCCCCC(=O)O)c(Cl)c1Cl
3,116 to 118,c1ccc(-c2ccc(-c3cccs3)s2)cc1
4,240 to 242,Cc1cccc(NC(=O)C2=C(O)c3ccc4ccccc4c3S(=O)(=O)N2C)c1
5,121 to 123,C=CC(C)C1CCC2C3CCC4=CC(O)CCC4(C)C3CCC12C (stereo not given)
6,98 to 100,Cc1c(C(=O)Nc2ccc(OCC(C)(C)C)c(C#N)c2)cnn1CCO
7,199 to 204,O=C(O)CCc1cc2cc(F)c(Cl)cc2n1S(=O)(=O)c1ccccc1
8,168 to 171,CCOC(=O)c1cn(-c2nc(NCc3ccc(OC)cc3)c(Cl)cc2F)c2c(Cl)c(F)c(F)cc2c1=O
9,212 to 214,O=C(O)Cn1c(=O)n(S(=O)(=O)c2ccccc2)c(=O)c2ccc(Cl)cc21
10,94 to 95,COC(=O)[C@@H](C)c1ccc2c(Br)c(OC)ccc2c1
11,220 to 232,C=C1CCc2c(F)c(F)cc3c(=O)c(C(=O)O)cn1c23
12,98 to 100,CCCCC(=O)c1c(-c2ccc3c(Br)c(OCC#N)ccc3c2)oc2ccccc12
13,201 to 203,CCOC(=O)c1cc(OC)c2c(c1)C(=O)c1c(F)ccc(OC)c1C2=O
14,75 to 77,CC(C)CC1NCCNC1=O (stereo not given)
15,74 to 77,O=C(O)C1(c2ccc(CN3CCN(c4ccc(F)cc4)CC3)cc2)CC1
16,172 to 174,C/C(=N\OC(=O)c1ccccn1)[C@H]1CC[C@H]2[C@@H]3CCC4=CC(=O)CC[C@]4(C)[C@H]3CC[C@]12C
17,107 to 108,OCc1cccc2nc(N3CCCCC3)sc12
18,170 to 172,Cc1ccc(-c2ccccc2-c2nn[nH]c2C#N)cc1
19,109 to 116,COC(=O)c1ccc(/C=C/c2cc3c(cc2CCCO)C(C)(C)CCC3(C)C)cc1
20,175 to 177,COc1cc(-n2c(OC)nc(C(F)(F)F)cc2=O)c(F)cc1Br
21,114 to 116,O=C1CCN(C(=O)Cl)c2ccc(Cl)cc21
22,119 to 121,O=S(=O)(NCCCN1c2ccccc2CCc2ccc(Cl)cc21)c1ccc(OC(F)(F)F)cc1

row,SMILES,melting point [°C]
1,[N-]=[N+]=Nc1nc(N)nc2nc[nH]c12,> 260
2,CCCOCc1ccc(C#CC2(O)CN3CCC2CC3)cc1 (stereo not given),140 to 141
3,COC(=O)c1nc(CN2CCOCC2)n(-c2ccc(Cl)cc2C(=O)c2ccccc2)n1,165 to 170
4,CCCN(SCNC(=O)ON=C(C)SC)P(=S)(OCC)OCC,68 to 69
5,Cc1cc2c(cc1-c1csc(C=CC(=O)O)c1)C(C)(C)CCC2(C)C,215 to 220
